Measured values published in US20210005278A1, “SYSTEMS AND METHODS FOR PREDICTIVE NETWORK MODELING FOR COMPUTATIONAL SYSTEMS, BIOLOGY AND DRUG TARGET DISCOVERY” (ARIZONA BOARD OF REGENTS ON BEHALF OF THE UNIVERSITY OF …, priority 2018, published 2021).
“Also recorded” adds a separate entry of the source.

Legend:
[1] = system: human SKMCs (HMCL-7304); assay: Growth assay in human SKMCs (crystal violet); type: cell-based; conditions: 12 to 14 days, 10 nM-10 uM
Method: (§1) After the treatment, the cells were fixed in cold methanol for 15 minutes and stained with crystal violet for 10 minutes. Dye excess was washed with water and pictures taken immediately afterwards.

[2] = system: iPSC lines; assay: HMGCR inhibition in iPSC lines, RNA-seq differential expression; type: cell-based, human; conditions: 1 uM, 12 h
Method: Previous efforts have validated predictive networks through similar approaches.
For the expression residuals used for the co-expression and predictive network analyses, 2 analysis streams were adopted: one where there was use of all samples without adjusting for patient ID (AS) and one where there was an averaging of residuals per patient (ApP). Differentially expressed genes were determined using a linear model, as implemented in the 1mFit function from the limma package v3.18.13 in R. Statistical significance was assessed using a cut-off of 0.05 on FDR adjusted p-values.
iPSCs from 6 IS and 6 IR individuals were maintained in feeder-free conditions using mTesr1 (Stem Cell technologies, Inc) supplemented with 1 mM L-Glutamine, 1 mM Penicillin-Streptomycin, 0.1 μ/ml Fungizone.) on 5% matrigel coated 6-well TC plates. For passaging, cells were washed once with PBS and treated with pre-warmed 1 mM EDTA (Sigma), incubated at 37 degrees for 1-5 minutes, and resuspended in fresh mTesr1 medium 2 μM Thiazovivin (Millipore). After 12 hours incubation in Thiazovivin, medium was changed daily with fresh mTesr1. […] Cells were washed once in PBS and harvested for RNA extraction using PureLInk RNA mini kit (Thermo Fisher Scientific). Total RNA was quantified using a Nanodrop (Thermo Scientific). RNA samples with a A260/280 ratio <1.8 or >2.3 were excluded from further processing and the RNA was sequenced using the Illumina HiSeq 2500 system.

[3] = system: human SGBS preadipocytes; assay: Growth assay in human SGBS preadipocytes (crystal violet); type: cell-based; conditions: 12 to 14 days, 10 nM-10 uM
Method: as §1

[4] = system: human adipocytes (differentiated SGBS cells); assay: Insulin mediated glucose uptake assay in mature human adipocytes (differentiated SGBS); type: cell-based; conditions: 24 hours pretreatment 10 nM-10 uM, 100 nM insulin stimulation
Method: For adipogenic differentiation SGBS cells were grown to confluence and subjected to a two-step differentiation process. […] Afterwards, cells were exposed to DMEM/F12 supplemented with 0.01 mg/mL of transferrin, […] of insulin, 100 nM cortisol, and 0.2 nM 3,3′,5-Triiodo-L-thyronine for additional 12 days. HMCL-7304 cells were differentiated in presence of SKMC differentiation medium (PromoCell) for 4-5 days before glucose uptake was performed. […] After the preincubation, the cells were starved for 2 hours prior to 30 minutes of 100 nM insulin stimulation at 37 degrees. […] The cells were then washed with PBS, harvested in 300 uL of M-PER lysis buffer (ThermoFisher), and then added to scintillation vials containing 4.75 mL of scintillation fluid (Perk Elmer). Radioactive counts were determined with a scintillation counter (Model ID: Beckman LS6500). Excess samples were subjected to BCA assay for protein quantification and normalization of radioactive counts. All samples were represented as fold change compared to the unstimulated (no insulin) condition.

[5] = system: SGBS cells; assay: Adipogenic differentiation assay (Oil Red O) in SGBS cells; type: cell-based, human; conditions: inhibitor added at day 0 of differentiation, 10 nM-10 uM
Method: For adipogenic differentiation SGBS cells were grown to confluence and subjected to a two-step differentiation process. […] Afterwards, cells were exposed to DMEM/F12 supplemented with 0.01 mg/mL of transferrin, […] of insulin, 100 nM cortisol, and 0.2 nM 3,3′,5-Triiodo-L-thyronine for additional 12 days. HMCL-7304 cells were differentiated in presence of SKMC differentiation medium (PromoCell) for 4-5 days before glucose uptake was performed. […] Differentiation quantification was performed with Oil Red 0. Differentiated SGBS cells were fixed with 10% formalin for 10 minutes at room temperature. After washing with 60% isopropanol, samples were incubated in Oil Red 0 (Sigma-Aldrich) for 10 minutes at room temperature. Oil Red 0 was eluted with 100% isopropanol for 10 minutes. The solution was then transferred into a 96-well plate and absorbance measured at 500nm.

| SMILES | cell proliferation in SKMCs [1] | number of DE genes, treated vs untreated samples ([2]; IR iPSC group only) | number of DE genes, treated vs untreated samples ([2]; IS iPSC group only) | number of DE genes, treated vs untreated samples ([2]; all iPSC lines (6 IR, 6 IS)) | preadipocyte growth [3] | insulin mediated glucose uptake [4] | differentiation efficiency (adipogenesis, Oil Red O absorbance at 500 nm) [5] |
| --- | --- | --- | --- | --- | --- | --- | --- |
| CC(C)c1c(C(=O)Nc2ccccc2)c(-c2ccccc2)c(-c2ccc(F)cc2)n1CC[C@@H](O)C[C@@H](O)CC(=O)O [atorvastatin] | inhibits; also recorded: affected | 785 | 711 | 3205 | detectable decrease |  |  |
| CN(C/C=C/C#CC(C)(C)C)Cc1cccc2ccccc12 [terbinafine] | only a significant effect on glucose uptake |  |  |  | only HMGCR inhibition demonstrates a detectable decrease | decrease insulin mediated glucose uptake | only HMGCR inhibition demonstrates a detectable decrease |
| NCCCC(O)(P(=O)(O)O)P(=O)(O)O [alendronate] | only a significant effect on glucose uptake |  |  |  | only HMGCR inhibition demonstrates a detectable decrease |  |  |
